Measured values as given in ChEMBL document CHEMBL1133990, “8-Amido-Bearing pseudomycin B (PSB) analogue: novel antifungal agents” (2001).
Values after ≈ are worked out from the molar mass of the structure shown.

Columns and labels:
Candida albicans = experiment: Concentration required to inhibit 90-100% of visible fungal growth in Candida albicans (A26) tested in vitro; assay type: functional
Cryptococcus neoformans = experiment: Concentration required to inhibit 90-100% of visible fungal growth in (M1 106) tested in vitro; assay type: functional
Mus musculus [1] = experiment: Ability to induce tail vein irritation in mice administered intravenously determined by tail vein assay; Activity- Positive; assay type: functional, organism-based
Aspergillus fumigatus = experiment: Concentration required to inhibit 90-100% of visible fungal growth in Aspergillus fumigatus (WM1) tested in vitro; assay type: functional
Mus musculus [2] = experiment: Ability to induce tail vein irritation in mice administered intravenously determined by tail vein assay; Activity- clean; assay type: functional, organism-based
Mus musculus [3] = experiment: Effective dose required to cure 50% of fungal infection in mice administered intraperitoneally tested in vivo; assay type: functional

MIC (Candida albicans) | MIC (Cryptococcus neoformans) | MIC (Aspergillus fumigatus) | SMILES | Activity (Mus musculus [1]) | Activity (Mus musculus [2]) | ED50 (Mus musculus [3])
20 µg/mL (≈ 15.5 µM) | 1.25 µg/mL (≈ 0.968 µM) | > 20 µg/mL | C/C=C1/NC(=O)[C@H]([C@@H](C)O)NC(=O)[C@H](CCN)NC(=O)[C@H](CCCCN)NC(=O)[C@H](CC(=O)O)NC(=O)[C@@H](CCN)NC(=O)[C@@H](NC(=O)C[C@H](O)CCCCCCCCCCC)COC(=O)[C@H]([C@H](O)CCl)NC(=O)[C@H]([C@H](O)C(=O)NCCCN(C)C)NC1=O |  |  | 
10 µg/mL (≈ 8.1 µM) | 1.25 µg/mL (≈ 1.01 µM) | > 20 µg/mL | C/C=C1/NC(=O)[C@H]([C@@H](C)O)NC(=O)[C@H](CCN)NC(=O)[C@H](CCCCN)NC(=O)[C@H](CC(=O)O)NC(=O)[C@@H](CCN)NC(=O)[C@@H](NC(=O)C[C@H](O)CCCCCCCCCCC)COC(=O)[C@H]([C@H](O)CCl)NC(=O)[C@H]([C@H](O)C(=O)NCC)NC1=O |  |  | 
20 µg/mL (≈ 15.8 µM) | 1.25 µg/mL (≈ 0.99 µM) | > 20 µg/mL | C/C=C1/NC(=O)[C@H]([C@H](C)O)NC(=O)[C@H](CCN)NC(=O)[C@H](CCCCN)NC(=O)[C@H](CC(=O)O)NC(=O)[C@@H](CCN)NC(=O)[C@@H](NC(=O)C[C@H](O)CCCCCCCCCCC)COC(=O)[C@H]([C@H](O)CCl)NC(=O)[C@H]([C@H](O)C(=O)NCCCC)NC1=O |  | Activity- clean | > 20 mg/kg
5 µg/mL (≈ 3.97 µM) | 1.25 µg/mL (≈ 0.991 µM) | > 20 µg/mL | C/C=C1/NC(=O)[C@H]([C@H](C)O)NC(=O)[C@H](CCN)NC(=O)[C@H](CCCCN)NC(=O)[C@H](CC(=O)O)NC(=O)[C@@H](CCN)NC(=O)[C@@H](NC(=O)C[C@H](O)CCCCCCCCCCC)COC(=O)[C@H]([C@H](O)CCl)NC(=O)[C@H]([C@H](O)C(=O)NC2CCC2)NC1=O |  | Activity- clean | > 20 mg/kg
10 µg/mL (≈ 7.3 µM) | 1.25 µg/mL (≈ 0.913 µM) | > 20 µg/mL | C/C=C1\NC(=O)[C@H]([C@H](C)O)NC(=O)[C@H](CCN)NC(=O)[C@H](CCCCN)NC(=O)[C@H](CC(=O)O)NC(=O)[C@@H](CCN)NC(=O)[C@@H](NC(=O)C[C@H](O)CCCCCCCCCCC)COC(=O)[C@H]([C@H](O)CCl)NC(=O)[C@H]([C@H](O)C(=O)NC(Cc2ccccc2)C(=O)OC)NC1=O (some centres undefined) |  | Activity- clean | > 20 mg/kg
20 µg/mL (≈ 16 µM) | 5 µg/mL (≈ 4 µM) | > 20 µg/mL | C/C=C1\NC(=O)[C@H]([C@H](C)O)NC(=O)[C@H](CCN)NC(=O)[C@H](CCCCN)NC(=O)[C@H](CC(=O)O)NC(=O)[C@@H](CCN)NC(=O)[C@@H](NC(=O)C[C@H](O)CCCCCCCCCCC)COC(=O)[C@H]([C@H](O)CCl)NC(=O)[C@H]([C@H](O)C(=O)NCCC)NC1=O |  | Activity- clean | 14 mg/kg
0.312 µg/mL (≈ 0.259 µM) | < 1 µg/mL | > 20 µg/mL | C/C=C1/NC(=O)[C@H]([C@H](C)O)NC(=O)[C@H](CCN)NC(=O)[C@H](CCCCN)NC(=O)[C@H](CC(=O)O)NC(=O)[C@@H](CCN)NC(=O)[C@@H](NC(=O)C[C@H](O)CCCCCCCCCCC)COC(=O)[C@H]([C@H](O)CCl)NC(=O)[C@H]([C@H](O)C(N)=O)NC1=O |  | Activity- clean | > 20 mg/kg
1.25 µg/mL (≈ 1.02 µM) | 0.156 µg/mL (≈ 0.128 µM) | > 20 µg/mL | C/C=C1/NC(=O)[C@H]([C@H](C)O)NC(=O)[C@H](CCN)NC(=O)[C@H](CCCCN)NC(=O)[C@H](CC(=O)O)NC(=O)[C@@H](CCN)NC(=O)[C@@H](NC(=O)C[C@H](O)CCCCCCCCCCC)COC(=O)[C@H]([C@H](O)CCl)NC(=O)[C@H]([C@H](O)C(=O)NC)NC1=O |  | Activity- clean | > 20 mg/kg
5 µg/mL (≈ 4.01 µM) | 0.312 µg/mL (≈ 0.25 µM) | > 20 µg/mL | C/C=C1/NC(=O)[C@H]([C@H](C)O)NC(=O)[C@H](CCN)NC(=O)[C@H](CCCCN)NC(=O)[C@H](CC(=O)O)NC(=O)[C@@H](CCN)NC(=O)[C@@H](NC(=O)C[C@H](O)CCCCCCCCCCC)COC(=O)[C@H]([C@H](O)CCl)NC(=O)[C@H]([C@H](O)C(=O)NC2CC2)NC1=O |  | Activity- clean | > 20 mg/kg
5 µg/mL (≈ 4 µM) | 0.625 µg/mL (≈ 0.5 µM) | > 20 µg/mL | C/C=C1/NC(=O)[C@H]([C@H](C)O)NC(=O)[C@H](CCN)NC(=O)[C@H](CCCCN)NC(=O)[C@H](CC(=O)O)NC(=O)[C@@H](CCN)NC(=O)[C@@H](NC(=O)C[C@H](O)CCCCCCCCCCC)COC(=O)[C@H]([C@H](O)CCl)NC(=O)[C@H]([C@H](O)C(=O)NCCO)NC1=O |  | Activity- clean | 
2.5 µg/mL (≈ 1.95 µM) | 0.08 µg/mL (≈ 0.0626 µM) | > 20 µg/mL | C/C=C1/NC(=O)[C@H]([C@H](C)O)NC(=O)[C@H](CCN)NC(=O)[C@H](CCCCN)NC(=O)[C@H](CC(=O)O)NC(=O)[C@@H](CCN)NC(=O)[C@@H](NC(=O)C[C@H](O)CCCCCCCCCCC)COC(=O)[C@H]([C@H](O)CCl)NC(=O)[C@H]([C@H](O)C(=O)NCC(=O)OC)NC1=O |  | Activity- clean | > 20 mg/kg
5 µg/mL (≈ 3.91 µM) | 1.25 µg/mL (≈ 0.978 µM) | > 20 µg/mL | C/C=C1/NC(=O)[C@H]([C@H](C)O)NC(=O)[C@H](CCN)NC(=O)[C@H](CCCCN)NC(=O)[C@H](CC(=O)O)NC(=O)[C@@H](CCN)NC(=O)[C@@H](NC(=O)C[C@H](O)CCCCCCCCCCC)COC(=O)[C@H]([C@H](O)CCl)NC(=O)[C@H]([C@H](O)C(=O)NCCN(C)C)NC1=O |  | Activity- clean | > 20 mg/kg

SMILES | MIC (Candida albicans) | MIC (Cryptococcus neoformans) | MIC (Aspergillus fumigatus) | Activity (Mus musculus [1]) | Activity (Mus musculus [2]) | ED50 (Mus musculus [3])
C/C=C1/NC(=O)[C@H]([C@H](C)O)NC(=O)[C@H](CCN)NC(=O)[C@H](CCCCN)NC(=O)[C@H](CC(=O)O)NC(=O)[C@@H](CCN)NC(=O)[C@@H](NC(=O)C[C@H](O)CCCCCCCCCCC)COC(=O)[C@H]([C@H](O)CCl)NC(=O)[C@H]([C@H](O)C(=O)O)NC1=O | 0.625 µg/mL (≈ 0.517 µM) | 0.078 µg/mL (≈ 0.0646 µM) | > 20 µg/mL | Activity- Positive |  | 
